Results: patent publication US6624149B2, “Method for nucleic acid transfection of cells” (Genteric, Inc., priority 2000, dated 2003)

Legend:
Format in all cases: in vivo
[1] = tested on: rat salivary gland (submandibular gland); test: Intraductal transfection of rat salivary gland with pCMV.FOX.Luc-2, luciferase assay; details: 48 hours
Protocol: Nucleic acid/transition metal enhancer mixtures were prepared by sequentially adding deionized water or a buffered solution, DNA, and a desired transition metal enhancer to a polystyrene tube with mixing. “Free” (i.e., “Naked”) DNA controls were prepared by sequentially adding DNA to water or a buffered solution
Male Sprague-Dawley rats (260-280 g) were fasted the night prior to treatment. After administration of the anesthesia (see Section 6.1.3), both right and left salivary gland ducts (specifically, Wharton's duct) were cannulated with fine polyurethane tubing (i.d. 0.005″) and cemented into the desired location. Atropine was then administered subcutaneously (0.5 mg/kg) and, after eight minutes, 50 μl of the nucleic acid/transition metal enhancer mixture was injected, infused, instilled or administered at the ductal orifice or directly into the duct at any point along its length. See Goldfine, Nature Biotechnology 15:1378, 1997.
Regardless of whether a liposome/transition metal/nucleic acid mixture or a nucleic acid/transition metal enhancer mixture was delivered, the tubing and mixture was kept in place for ten additional minutes after application of the mixture prior to removal. At 48 hours post atropine administration, the rats were anesthetized by intraperitoneal injection of pentobarbital (50 mg/kg). The right and left submandibular glands were surgically removed, and the tissues were assayed for any observable reporter gene (luciferase of hGH) expression using the methods described below.
The presently claimed invention describes a new method using a combination of a transition metal enhancer and a nucleic acid of interest for gene delivery. The present invention provides a method which may enhance gene expression by improving the efficiency of gene delivery. This change in gene expression can be quantitated using various assays, such as the luciferase assay. de Wet et al., Molec. Cell Biol. 7:725, 1987. In various experiments described herein, the right and left submandibular glands were removed from the male Sprague-Dawley rats at 48 hours post administration of the pCMV.FOX.Luc-2 containing solution. In additional experiments other organs, such as the rat lungs, were used.
In experiments in which submandibular glands were tested, the amount of luciferase present in the right and left submandibular gland of each male Sprague-Dawley rat was measured independently and treated as separate, individual experiments (e.g., trials) because the amount of luciferase expressed by one submandibular gland is independent of the amount of luciferase expressed in the other submandibular gland. Therefore, each submandibular gland was independently lysed in lysis buffer (1.0 ml buffer per 0.1 g tissue) to create a lysis homogenate. The lysis buffer contained 100 mM K2PO4 pH 7.0, 1 mM dithiothreitol, and 1% Triton X-100. A 100 μl aliquot of lysis homogenate from each submandibular gland was analyzed for luciferase activity (de Wet et al., Molec. Cell Biol. 7:725, 1987) using a Monolight 2010 luminometer (Analytical Luminescence Laboratories). Accordingly, luciferase light emissions from each aliquot of the lysis homogenate were measured over a ten second period.
Activity was expressed as relative light units, values collectively representing the assay conditions, luciferase concentration, luminometer photomultiplier tube sensitivity and background. Using well known techniques, the luciferase light units may be converted, for example, to picograms of luciferase protein. See, e.g., Felgner et al., U.S. Pat. No. 5,580,899 at Example 13. All experiments were performed in duplicate. In experiments using submandibular glands, data from each individual submandibular gland lysis homogenate is reported as a single trial.

[2] = tested on: mouse lung; test: Intra-tracheal transfection of mouse lung, luciferase assay; details: 3.6 mM zinc chloride
Protocol: Male BALB/c mice (specific pathogen free, Charles River Laboratories; 20-21 g) were used in the transfection experiments. Anesthesia was provided for all invasive procedures; animals were terminated by intraperitoneal administration of pentobarbital according to standard protocols. Neck dissections were performed on anesthetized mice using a one centimeter incision through the skin of the anterior neck. […] For comparison, a free nucleic acid solution (150 μl containing 512 μg of DNA) was prepared in sterile water and delivered in a similar manner. After injection, the point of incision was repaired using staples. The mice were terminated within 48 hours after treatment. […] An experiment was conducted to determine if transition metals promote in vivo transfection of the mouse lung. […] The final zinc chloride concentration of this mixture was 3.6 mM. […] For comparison, 150 μl of a DNA solution (354 μg DNA) was also administered to intratracheally to the lungs of four mice. At 48 hours post administration, the tracheal/lung block was dissected and assayed for luciferase specific activity as described above.

[3] = tested on: rat pancreas; test: Intraductal transfection of rat pancreas, luciferase assay; details: 64 μg pCMV.FOX.Luc-2 in 100 μL into bile duct, 48 hours, four trials; ZnCl2 absent or 1.8 mM
Protocol: Male Sprague-Dawley rats (weighing 260-280 g) were fasted the night prior to treatment. Care was taken to ensure that this procedure was conducted under sterile conditions. After anesthesia (see above) and laparotomy, the distal end of the bile duct (at the level of the duodenum) was ligated, the proximal end of the pancreas (at the porta hepatis level) was temporary blocked by a ligature, a PE-10 tubing was inserted through an incision of the bile duct near the duodenum. 0.1 ml of the selected nucleic acid/transition metal enhancer mixture was injected in a retrograde manner into the duct. Successful injection was confirmed by visible swelling of the gland. For administration to the liver, the proximal portion of the bile duct (prior to its entry into pancreatic tissue) was injected. After DNA delivery, a by-pass operation was done by directly introducing the bile flow to duodenum through the exterior end of the PE-10 tubing. After carefully ensuring the ligatures were secure, 1 ml of ampicillin (15 mg/ml) was injected into the peritoneal cavity and the incision was closed in one layer, combining fascia and skin with 3-0 silk suture. The closed incision was washed with dilute ethanol and the animal was monitored under a heat lamp until it was fully awake and ambulatory. The […] were terminated 48 hours after treatment. […]

**Q.** How did the “Average relative light units” value ([1]; Table 2, metal chloride 0.9 mM, 32 μg DNA in 50 μl, eight glands) turn out when `[Cl-].[Cl-].[Zn+2]` [ZnCl2, zinc chloride] was run?
**A.** Its value is 63842 relative light units.

**Q.** What about the “Average relative light units” value ([1]; Table 3, metal chloride 0.9 mM, 32 μg DNA in 50 μl, Tris-HCl/EDTA, eight glands) of the same compound?
**A.** The value was 5685 relative light units.

**Q.** What about the “Average relative light units” value ([1]; Table 6, zinc 3.6 mM, 128 μg DNA in 50 μl) of the same compound?
**A.** Its value is 243362 relative light units.

**Q.** And the “Average relative light units” value ([1]; Table 7, ZnCl2 3.6 mM, pH 5.5, 128 μg DNA in 50 μl)?
**A.** Its value is 252446 relative light units.

**Q.** And the “Average relative light units” value ([1]; Table 7, ZnCl2 3.6 mM, pH 6.5, 128 μg DNA in 50 μl)?
**A.** Its value is 196002 relative light units.

**Q.** And the “Average relative light units” value ([1]; Table 7, ZnCl2 3.6 mM, pH 7.5, 128 μg DNA in 50 μl)?
**A.** Its value is 260340 relative light units.

**Q.** And the “Average relative light units” value ([1]; Table 7, ZnCl2 3.6 mM, pH 8.5, 128 μg DNA in 50 μl)?
**A.** The value was 277958 relative light units.

**Q.** And the “Improvement of transfection activity relative to the "free" DNA solution” value [2]?
**A.** Its value is 5 fold.

**Q.** And the average luciferase activity [3]?
**A.** The average luciferase activity was 22028 relative luciferase light units per 10 mg of pancreatic tissue.
